According to the NIST ThermoML archive (doi:10.1016/j.fluid.2016.08.014):

Legend:
[1] = Liquid, Vibrating tube method
[2] = refractive index (Na D-line) (dimensionless); conditions: 298.15 K; 101.33 kPa; Liquid; Standard Abbe refractometry

CNC=O [N-methylformamide]
[1]
Conditions	mass density [kg/m3]
293.15 K, 200 kPa	1004
293.15 K, 500 kPa	1004
293.15 K, 1000 kPa	1004
293.15 K, 2500 kPa	1005
293.15 K, 5000 kPa	1006
293.15 K, 7600 kPa	1008
293.15 K, 10100 kPa	1009
293.15 K, 15000 kPa	1012
293.15 K, 20100 kPa	1015
293.15 K, 25100 kPa	1017
293.15 K, 30100 kPa	1020
293.15 K, 35000 kPa	1023
298.15 K, 101.33 kPa	999.361
303.15 K, 200 kPa	995
303.15 K, 500 kPa	995
303.15 K, 1100 kPa	995
303.15 K, 2500 kPa	996
303.15 K, 5100 kPa	998
303.15 K, 7600 kPa	999
303.15 K, 10000 kPa	1000
303.15 K, 15100 kPa	1004
303.15 K, 20100 kPa	1006
303.15 K, 25100 kPa	1009
303.15 K, 30000 kPa	1012
303.15 K, 35000 kPa	1014
313.15 K, 200 kPa	986
313.15 K, 500 kPa	986
313.15 K, 1100 kPa	987
313.15 K, 2600 kPa	987
313.15 K, 5100 kPa	989
313.15 K, 7500 kPa	990
313.15 K, 10100 kPa	992
313.15 K, 15000 kPa	995
313.15 K, 20000 kPa	998
313.15 K, 25100 kPa	1001
313.15 K, 30000 kPa	1004
313.15 K, 35000 kPa	1006
323.15 K, 100 kPa	977
323.15 K, 500 kPa	977
323.15 K, 1000 kPa	978
323.15 K, 2500 kPa	979
323.15 K, 5000 kPa	980
323.15 K, 7500 kPa	982
323.15 K, 10000 kPa	984
323.15 K, 15100 kPa	987
323.15 K, 20100 kPa	990
323.15 K, 25000 kPa	993
323.15 K, 30100 kPa	996
323.15 K, 35100 kPa	999
333.15 K, 100 kPa	969
333.15 K, 500 kPa	969
333.15 K, 1000 kPa	969
333.15 K, 2500 kPa	970
333.15 K, 5000 kPa	972
333.15 K, 7500 kPa	974
333.15 K, 10000 kPa	975
333.15 K, 15000 kPa	979
333.15 K, 20100 kPa	982
333.15 K, 25000 kPa	985
333.15 K, 30000 kPa	988
333.15 K, 35000 kPa	990
343.15 K, 100 kPa	960
343.15 K, 500 kPa	960
343.15 K, 1000 kPa	960
343.15 K, 2500 kPa	962
343.15 K, 5100 kPa	963
343.15 K, 7500 kPa	965
343.15 K, 10100 kPa	967
343.15 K, 15100 kPa	970
343.15 K, 20000 kPa	973
343.15 K, 25100 kPa	977
343.15 K, 30100 kPa	980
343.15 K, 35100 kPa	983
353.15 K, 100 kPa	950
353.15 K, 500 kPa	950
353.15 K, 1000 kPa	952
353.15 K, 2500 kPa	953
353.15 K, 5100 kPa	955
353.15 K, 7600 kPa	957
353.15 K, 10000 kPa	958
353.15 K, 15100 kPa	962
353.15 K, 20100 kPa	965
353.15 K, 25000 kPa	969
353.15 K, 30100 kPa	972
353.15 K, 35100 kPa	975
363.15 K, 100 kPa	942
363.15 K, 500 kPa	943
363.15 K, 1000 kPa	943
363.15 K, 2500 kPa	944
363.15 K, 5100 kPa	946
363.15 K, 7600 kPa	948
363.15 K, 10100 kPa	950
363.15 K, 15100 kPa	954
363.15 K, 20100 kPa	957
363.15 K, 25000 kPa	960
363.15 K, 30100 kPa	964
363.15 K, 35000 kPa	967
373.15 K, 100 kPa	934
373.15 K, 500 kPa	934
373.15 K, 1000 kPa	934
373.15 K, 2500 kPa	936
373.15 K, 5100 kPa	938
373.15 K, 7600 kPa	940
373.15 K, 10000 kPa	941
373.15 K, 15100 kPa	945
373.15 K, 20100 kPa	949
373.15 K, 25000 kPa	952
373.15 K, 30100 kPa	956
373.15 K, 35000 kPa	959
398.15 K, 100 kPa	911
398.15 K, 500 kPa	912
398.15 K, 1100 kPa	912
398.15 K, 2500 kPa	913
398.15 K, 5000 kPa	916
398.15 K, 7600 kPa	918
398.15 K, 10000 kPa	920
398.15 K, 15000 kPa	924
398.15 K, 20100 kPa	928
398.15 K, 25000 kPa	932
398.15 K, 30000 kPa	936
398.15 K, 35100 kPa	940
423.15 K, 100 kPa	888
423.15 K, 500 kPa	889
423.15 K, 1000 kPa	889
423.15 K, 2600 kPa	890
423.15 K, 5100 kPa	893
423.15 K, 7500 kPa	896
423.15 K, 10000 kPa	898
423.15 K, 15200 kPa	903
423.15 K, 20100 kPa	907
423.15 K, 25100 kPa	911
423.15 K, 30100 kPa	916
423.15 K, 35100 kPa	920

Conditions	refractive index
[2]	1.43063

CC(=O)N(C)C [N,N-dimethylethanamide]
[1]
Conditions	mass density [kg/m3]
293.15 K, 300 kPa	941
293.15 K, 2600 kPa	943
293.15 K, 5100 kPa	944
293.15 K, 10100 kPa	947
293.15 K, 14900 kPa	950
293.15 K, 20200 kPa	953
293.15 K, 25200 kPa	955
293.15 K, 30400 kPa	958
298.15 K, 101.33 kPa	936.729
303.2 K, 300 kPa	932
303.2 K, 2500 kPa	933
303.2 K, 5100 kPa	935
303.2 K, 10200 kPa	938
303.2 K, 15200 kPa	941
303.2 K, 20200 kPa	944
303.2 K, 24900 kPa	947
303.2 K, 30200 kPa	950
313.15 K, 100 kPa	922
313.15 K, 2500 kPa	924
313.15 K, 5200 kPa	926
313.15 K, 10000 kPa	929
313.15 K, 15200 kPa	932
313.15 K, 20100 kPa	935
313.15 K, 25200 kPa	938
313.15 K, 30200 kPa	941
323.15 K, 100 kPa	912
323.15 K, 2500 kPa	915
323.15 K, 5000 kPa	917
323.15 K, 10100 kPa	920
323.15 K, 15100 kPa	923
323.15 K, 20100 kPa	927
323.15 K, 25100 kPa	930
323.15 K, 30500 kPa	933
333.15 K, 100 kPa	903
333.15 K, 2500 kPa	906
333.15 K, 5100 kPa	907
333.15 K, 10100 kPa	911
333.15 K, 15100 kPa	915
333.15 K, 20200 kPa	918
333.15 K, 25000 kPa	921
333.15 K, 30100 kPa	924
343.15 K, 100 kPa	894
343.15 K, 2600 kPa	896
343.15 K, 5100 kPa	898
343.15 K, 10000 kPa	902
343.15 K, 15000 kPa	906
343.15 K, 20200 kPa	909
343.15 K, 25100 kPa	913
343.15 K, 30300 kPa	916
353.15 K, 100 kPa	885
353.15 K, 2500 kPa	887
353.15 K, 5200 kPa	889
353.15 K, 10000 kPa	893
353.15 K, 14900 kPa	897
353.15 K, 20200 kPa	901
353.15 K, 25200 kPa	905
353.15 K, 30100 kPa	908
363.15 K, 200 kPa	876
363.15 K, 2500 kPa	878
363.15 K, 5000 kPa	880
363.15 K, 10100 kPa	884
363.15 K, 15200 kPa	888
363.15 K, 20300 kPa	892
363.15 K, 25200 kPa	896
363.15 K, 30000 kPa	899
373.15 K, 100 kPa	866
373.15 K, 2600 kPa	868
373.15 K, 5100 kPa	871
373.15 K, 10000 kPa	875
373.15 K, 15100 kPa	880
373.15 K, 20300 kPa	884
373.15 K, 25100 kPa	888
373.15 K, 30600 kPa	892
383.15 K, 100 kPa	856
383.15 K, 2500 kPa	859
383.15 K, 5000 kPa	861
383.15 K, 10000 kPa	866
383.15 K, 15000 kPa	870
383.15 K, 20300 kPa	875
383.15 K, 25300 kPa	879
383.15 K, 30200 kPa	883
393.15 K, 15000 kPa	870
403.15 K, 100 kPa	837
403.15 K, 2500 kPa	840
403.15 K, 5100 kPa	843
403.15 K, 10200 kPa	848
403.15 K, 15000 kPa	853
403.15 K, 20700 kPa	858
403.15 K, 25200 kPa	862
403.15 K, 30900 kPa	867
413.15 K, 100 kPa	826
413.15 K, 2600 kPa	830
413.15 K, 5000 kPa	833
413.15 K, 10100 kPa	838
413.15 K, 15100 kPa	844
413.15 K, 20100 kPa	849
413.15 K, 25200 kPa	854
413.15 K, 30200 kPa	858

Conditions	refractive index
[2]	1.43615
